Test results taken from patent US20130130306A1, “ZN (II) BASED COLORIMETRIC SENSOR AND PROCESS FOR THE PREPARATION THEREOF” (COUNCIL OF SCIENTIFIC & INDUSTRIAL RESEARCH, priority 2010, published 2013).

What was measured:
[1] = tested on: Yeast cells (Saccharomyces cerevisiae); assay: Staining of Yeast cells, light microscopy and SEM; assay type: cell-based
Experimental: (§1) The isolates of Saccharomyces sp. were cultured in GYE (glucose yeast extract agar) media, Bacillus sp. in Nutrient broth, and Pseudomonas sp. in King's B medium for 24 hour at 37° C. […] of this was taken and was allowed to incubate at 30 to 40° C. along with 100 μl of L.Zn (Scheme 1, Formula 1A) (1.16×10^−4 M) solution. The samples were fixed overnight at room temperature 25-30° C. with 2% (v/v) glutaraldehyde in 0.1 M phosphate buffer at pH 7.5. The samples were then washed with 0.1 M phosphate buffer (pH 7.5) at room temperature 25-30° C. for 1 hour. Post-fixation was carried out in 2% (w/v) osmium tetroxide (OsO4) in the same buffer and was washed once with 0.1 M phosphate buffer for 20 minutes. Then, the water was removed by a graded water-ethanol series; 25% ethanol for 15 min, 50% ethanol for 15 min, 75% ethanol for 30 min, 90% ethanol for 60 min, absolute alcohol for 30 min. The specimens were rinsed in buffer and coated with gold in a sputter coater (Polaron SC7620) prior to microscopy. The material was examined in a Scanning Electron Microscope (SEM) LEO 1430 VP at an accelerating Voltage of 15 kV.
(§2) The isolates of Saccharomyces sp. were cultured in GYE (glucose yeast extract agar) media, Bacillus sp. in Nutrient broth, and Pseudomonas sp. in King's B medium for 24 hour at 37° C. 1001 of this was taken and was allowed to incubate at room temperature along with 1001 of [L.Zn]=1.16×10^−4M solution (pH 7.2, 10 mM HEPES buffer solution). The samples were fixed overnight at 25 to 35° C. with 2% (v/v) glutaraldehyde in 0.1 M phosphate buffer at pH 7.5. The samples were then; washed with 0.1 M phosphate buffer (pH 7.5) at 25 to 35° C. for 1 hour. Post-fixation was carried out in 2% (w/v) osmium tetroxide (OsO4) in the same buffer and was washed once with 0.1 M phosphate buffer for 20 minutes. Then, the water was removed by a graded water-ethanol series; 25% ethanol for 15 min, 50% ethanol for 15 min, 75% ethanol for 30 min, 90% ethanol for 60 min, absolute alcohol for 30 min. The specimens were rinsed in buffer and coated with gold in a sputter coater (Polaron SC7620) prior to microscopy. The material was examined in a scanning electron microscope (SEM) LEO 1430 VP at an accelerating Voltage of 15 kV.
We have therefore, been able to use the receptor molecule, L.Zn (Scheme 1, Formula 1A) for staining Eukaryotic cells. Yeast cells were exposed to the receptor molecule L.Zn (Scheme 1, Formula 1A) (1.16×10^−4 M) for 20 min or L.Zn-CD (Scheme 2) (([L.Zn]=0.5×10^−3 M [α-CD]=2.92×10^−3 M) for 2 min followed by subsequent washing with water mixtures and then viewed under a light microscope (AXIO IMAGER-Carl Zeiss).
Ethanol is known to act as a dehydrator and a good fixative of biological samples. […] This confirms the binding of the ATP ions of the cell surface to L.Zn (Scheme 1, Formula 1A) as the plausible reason for the observed staining. […] This observation could be explained on the basis of the reversible binding of ATP, produced in situ in the Yeast cells.

[2] = tested on: Bacillus megaterium (Gram +ve); assay: Staining of Gram +ve bacteria, light microscopy; assay type: cell-based; parameters: change in color of bacterial stains: dose or concentration left out as unconfirmed
Experimental: The isolates of Saccharomyces sp. were cultured in GYE (glucose yeast extract agar) media, Bacillus sp. in Nutrient broth, and Pseudomonas sp. in King's B medium for 24 hour at 37° C. […] of this was taken and was allowed to incubate at 30 to 40° C. along with 100 μl of L.Zn (Scheme 1, Formula 1A) (1.16×10^−4 M) solution. The samples were fixed overnight at room temperature 25-30° C. with 2% (v/v) glutaraldehyde in 0.1 M phosphate buffer at pH 7.5. The samples were then washed with 0.1 M phosphate buffer (pH 7.5) at room temperature 25-30° C. for 1 hour. Post-fixation was carried out in 2% (w/v) osmium tetroxide (OsO4) in the same buffer and was washed once with 0.1 M phosphate buffer for 20 minutes. […]
We also explored the possibility of using L.Zn/L.Zn.α-CD as the staining agent for prokaryotes (Gram +ve and Gram −ve bacterial cells). […] Changes on the cell surfaces on binding of the dye, L.Zn (Scheme 1, Formula 1A) were also evident from the SEM images recorded for Gram −ve and Gram +ve bacteria, in absence and presence of staining agent (FIGS. 11C to 11F). […] The growth profile of Eukaryotic Yeast cells (Saccharomyces cerevisiae) and Prokaryotic bacterial cells ([…]) in an aqueous culture medium in absence and presence of L.Zn (Scheme 1, Formula 1A) are shown in FIG. 12. […]

[3] = tested on: Pseudomonas fluorescence (Gram −ve); assay: Staining of Gram −ve bacteria, light microscopy and growth kinetics; assay type: cell-based; parameters: change in color of bacterial stains: dose or concentration left out as unconfirmed; settings: for growth of colonies streaked on nutrient agar plates after incubation with sensor: Pseudomonas species in King's B media, 25° C., 10 mins
Experimental: as §1, §2
We also explored the possibility of using L.Zn/L.Zn.α-CD as the staining agent for prokaryotes (Gram +ve and Gram −ve bacterial cells). […] As expected stained cells for Gram +ve bacteria appeared longer as compared to those of the stained Gram −ve bacteria. The difference in the staining intensity for two different bacteria with the L.Zn.α-CD (Scheme 2) could be much better understood after going into the depth of cell biology of each bacterial cells and the detailed biochemistry involved while staining; besides, difference in cell structure and cell wall composition of the respective bacteria. […] Changes on the cell surfaces on binding of the dye, L.Zn (Scheme 1, Formula 1A) were also evident from the SEM images recorded for Gram −ve and Gram +ve bacteria, in absence and presence of staining agent (FIGS. 11C to 11F). Difference in the contrasts in the SEM images of the sample surfaces also signifies the non-homogeneous chemical nature of the sample surface. […] The growth profile of Eukaryotic Yeast cells (Saccharomyces cerevisiae) and Prokaryotic bacterial cells ([…]) in an aqueous culture medium in absence and presence of L.Zn (Scheme 1, Formula 1A) are shown in FIG. 12. […]

[4] = Lipophilic nature of the dye

Compound: CN(C)c1ccc(N=Nc2ccc(S(=O)(=O)N3CCCNCCNCCCNCC3)cc2)cc1.O=[N+]([O-])[O-].O=[N+]([O-])[O-].[Zn+2] [L.Zn]
- color of Yeast cells after treatment ([1]; L.Zn 0.116 mM, light microscopy): pink-violet
- growth of colonies streaked on nutrient agar plates after incubation with sensor ([1]; Saccharamyces species in GYE media, sensor 1.0×10^−4 M, 25° C., 10 mins): colonies of the test microbes grew
- control experiments: change in color of Yeast cells ([1]; control treatment of cells): no such change in color was observed
- destaining of stained Yeast cells by citrate (reversible binding) ([1]; excess (50 mole equivalent) of citrate ion): became colorless
- stability of staining after washing ([1]; washing with water/ethanol (70/30, v/v)): stable
- growth of colonies streaked on nutrient agar plates after incubation with sensor ([2]; Bacillus species in Nutrient broth, sensor 1.0×10^−4 M, 25° C., 10 mins): colonies of the test microbes grew
- change in color of bacterial stains ([2]; light microscopy): distinct change in color
- growth of colonies streaked on nutrient agar plates after incubation with sensor ([3]; sensor 1.0×10^−4 M): colonies of the test microbes grew
- growth of colonies streaked on nutrient agar plates after incubation with sensor ([3]; sensor 1.25×10^−4 M): colonies of the test microbes grew
- growth of colonies streaked on nutrient agar plates after incubation with sensor ([3]; sensor 1.45×10^−4 M): colonies of the test microbes grew
- binding to ATP released during cell growth, Gram −ve compared to Gram +ve ([3]; extent of absorbance changes and slope, growth kinetics at 600 nm): higher binding
- change in color of bacterial stains ([3]; light microscopy): distinct change in color
- lipophilic nature [4]: non-lipophilic
